One assay addresses T1, human B2R (Homo sapiens, UniProt P30411).
T1 construct: expressed in transfected cells; host or cells: HEK-293T
T1 sequence (P30411 1-391): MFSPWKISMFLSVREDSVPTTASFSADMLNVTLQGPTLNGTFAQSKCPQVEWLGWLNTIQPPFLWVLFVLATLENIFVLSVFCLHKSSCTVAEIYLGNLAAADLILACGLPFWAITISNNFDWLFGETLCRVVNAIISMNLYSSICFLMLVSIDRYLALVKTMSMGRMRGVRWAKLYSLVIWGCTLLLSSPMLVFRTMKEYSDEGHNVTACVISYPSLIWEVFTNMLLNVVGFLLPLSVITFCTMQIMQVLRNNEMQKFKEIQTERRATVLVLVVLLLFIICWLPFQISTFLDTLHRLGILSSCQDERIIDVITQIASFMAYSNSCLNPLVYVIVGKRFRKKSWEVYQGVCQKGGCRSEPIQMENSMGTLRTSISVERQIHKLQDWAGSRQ
Nature of the assay: Radioligand competition binding on live adherent HEK-293T cells transiently transfected with hB2R. The note with it: read-out: binding affinity; agonists, HEK-293T cells transfected with B2R. On the technique in general: In a radioligand displacement assay an active substance lowers the binding of a labelled ligand.

Assay [1] has as its target T2, B2R endogenously expressed in the human de-endothelized umbilical veins (Homo sapiens, UniProt P30411).
T2 construct: B2R endogenously expressed in the human de-endothelized umbilical veins (hUV); from tissue; host or cells: human umbilical vein, de-endothelized
T2 sequence (P30411 1-391): T1 sequence (P30411 1-391)
Nature of the assay: Functional bioassay on isolated human de-endothelized umbilical veins (hUV). The note with it: read-out: biological activity; agonists, isometric contraction of human vessels. Here is the method:
For testing the pharmacological activities of agonists, complete concentration-contractile response curves to agents were done at the B2R endogenously expressed in the human de-endothelized umbilical veins (hUV), as previously described. EC50 values (or potencies) of the agonists were calculated from the obtained concentration-response curves. […] The collection of umbilical cords for the bioassays was approved by the local ethical committee, and maternal consent was obtained in every case.

Another assay concerns MDA-MB-231 cells. Put plainly: Anchorage-dependent clonogenic assay. Type of assay: cell-based, human. The note with it: 10-14 days. Here is the method:
MDA-MB-231 cells were plated at 200 cells/well in a six-well dish in 2 ml DMEM medium containing 10% FBS. […] After 10 to 14 days, colonies were fixed and stained with 0.5% methylene blue in 50% ethanol. Excess of staining solution was removed carefully with tap water and the plates were dried overnight. Colony counting and densitometric analyses (to measure total colony numbers and surface areas) were performed using the Image Pro Plus 5.1 software.

Square brackets hold non-standard residues; d marks the D form. Peptide text beside a SMILES is read from it.

Take `N=C(N)NCCC[C@H](NC(=O)[C@H](Cc1ccccc1)NC(=O)[C@@H]1CCCN1C(=O)[C@H](CO)NC(=O)[C@H](Cc1ccccc1)NC(=O)CNC(=O)[C@@H]1CCCN1C(=O)[C@@H]1CCCN1C(=O)[C@H](CCCNC(=N)N)NC(=O)CNC(=O)CNC(=O)CNC(=O)[C@@H](CCCNC(=N)N)NC(=O)[C@@H](CCCNC(=N)N)NC(=O)[C@@H](CCCNC(=N)N)NC(=O)[C@@H](CCC(N)=O)NC(=O)[C@@H](CCCNC(=N)N)NC(=O)[C@@H](CCCNC(=N)N)NC(=O)[C@@H](CCCCN)NC(=O)[C@@H](CCCCN)NC(=O)[C@@H](CCCNC(=N)N)NC(=O)CN)C(=O)O` [DTat-BK] (H-G[dR][dK][dK][dR][dR][dQ][dR][dR][dR]GGGRPPGFSPFR-OH; N-terminus and C-terminus assumed): on human B2R, the IC50 was determined as 110 ± 4 nM. The EC50 in assay [1] is 350 ± 1 nM. Further, in the assay on MDA-MB-231 cells, the “colony number (agonist effect)” value was “did not increase colony number” and the “colony surface area (agonist effect)” value is recorded as “increase in colony surface area”.
